Test results taken from US6797721B2, “Phorboxazole derivatives for treating cancer” (Parker Hughes Institute, priority 1999, dated 2004).

Columns and labels:
[1] = system: U373 human glioblastoma cells; test: MTT cytotoxicity assay, U373; type: cell-based; settings: U373 MG, U373 (brain tumor, glioblastoma), 24-36 hours, read-out: IC50 [MTT]
Protocol: The cytotoxicity assay of synthetic Phorboxazole A and various derivative compounds against human tumor cells was performed using the MTT (3-[4,5-dimethylthiazol-2-yl]-2,5-diphenyl tetrazolium bromide) assay (Boehringer Mannheim Corp., Indianapolis, Ind.). Briefly, exponentially growing brain tumor cells were seeded into a 96-well plate at a density of 2.5×10^4 cells/well and incubated for 36 hours at 37° C. prior to drug exposure. On the day of treatment, culture medium was carefully aspirated from the wells and replaced with fresh medium containing the various phorboxazole A derivative compounds as well as the tyrosine kinase inhibitory isoflavone genistein (GEN) at concentrations ranging from 0.1 to 250 μM. Triplicate wells were used for each treatment.
Human glioblastoma cells U373 (brain cancer), human B-lineage acute lymphoblastic leukemia cells NALM-6, and human breast cancer cells BT-20 were obtained from American Type Culture Collection (Rockville, Md.) and maintained as a continuous cell line in Dulbecco's modified Eagles's medium supplemented with 10% fetal bovine serum and antibiotics.
The cells were incubated with the various compounds for 24-36 hours at 37° C. in a humidified 5% CO2 atmosphere. To each well, 10 μl of MTT (0.5 mg/ml final concentration) was added and the plates were incubated at 37° C. for 4 hours to allow MTT to form formazan crystals by reacting with metabolically active cells. The fonnazan crystals were solubilized overnight at 37° C. in a solution containing 10% SDS in 0.01 M HCl. The absorbance of each well was measured in a microplate reader (Labsystems) at 540 nm and a reference wavelength of 690 nm. To translate the OD540 values into the number of live cells in each well, the OD540 values were compared to those on standard OD540-versus-cell number curves generated for each cell line. The percent survival was calculated using the formula: [formula]
The IC50 values were calculated by non-linear regression analysis.

[2] = system: NALM-6 B-lineage ALL cells; test: Clonogenic assay, NALM-6; type: cell-based, human; settings: 7 days
Protocol: The growth-inhibiting activity of the synthetic Phorboxazole A and the synthesized derivatives was tested in clonogenic assays. Cancer cells were treated with 1 nM, 10 nM, and 100 nM doses of synthetic Phorboxazole A or derivatives of phorboxazole A. Treated cells included U373 human glioblastoma cells, NALM-6, human B-lineage acute lymphoblastic leukemia cells, and BT-20 human breast cancer cells. The cancer cells were resuspended in clonogenic medium consisting of alpha-MEM supplemented with 0.9% methylcellulose, 30% fetal bovine serum, and 50 μM 2-mercaptoethanol. Cells were plated in duplicate Petri dishes at 100,000 cells/mL/dish and cultured in a humidified 5% CO2 incubator for 7 days. Cancer cell colonies were enumerated on a grid using an inverted phase microscope of high optical resolution. Results were expressed as % inhibition of clonogenic cells at a particular concentration of the test agent using the formula:
% Inhibition=(1−Mean # of colonies [Test]/Mean # of colonies [Control]×100.

[3] = system: U373 glioblastoma cells; test: Matrigel invasion assay (Boyden chambers); type: cell-based; settings: Homo sapiens, U373 MG; cells treated 72 hours; invasion 48 hours; read-out: IC50, inhibition of glioblastoma cell invasion through Matrigel
Protocol: The in vitro invasiveness of human brain tumor cell lines U-373 MG and breast cancer cell lines BT-20 and MDA-MB-231 cells was assayed using a previously published method which employs Matrigel™-coated Costar 24-well transwell cell culture chambers (“Boyden chambers”) with 8.0-μm-pore polycarbonate filter inserts (Albini,et.al, 1987, Cancer Res., 47:3239-3245). The chamber filters were coated with 50 μg/ml of Matrigel™ matrix, incubated overnight at room temperature under a laminar flow hood and stored at 4° C. Matrigel™ matrix is made up of several components of the extracellular matrix (ECM), including collagen, laminin and proteo-glycans. The cancer cells were incubated with 500, 250, 125, 62.5, and 31.2 nM concentrations of the synthetic Phorboxazole compounds for 72 hours.
On the day of the experiment, the coated inserts were rehydrated with 0.5 ml serum-free DMEM containing 0.1% bovine serum albumin for 1-2 hours. The treated cells were trypsinized, washed twice with serum-free DMEM containing BSA, counted and resuspended at 1×10^5 cells/ml. A 0.5 ml cell suspension containing 5×10^4 cells in a serum-free DMEM was added to the Matrigel™-coated and rehydrated filter inserts. A volume of 750 μl of NIH fibroblast conditioned medium was placed as a chemoattractant in 24-well plates and the inserts were placed in wells and incubated at 37° C. for 48 hours.
The invasive cells that migrated to the lower side of the filter were fixed, stained with Hema-3 solutions and counted under microscope. Five to 10 random fields per filter were counted to determine the mean (±SE) values for the invasive fraction. The invasive fractions of cells treated with phorboxazole A derivatives were compared to those of DMSO treated control cells and the percent inhibition of invasiveness was determined using the formula: [formula]
Each treatment condition was evaluated in duplicate in 3 independent experiments. IC50 values were calculated by non-linear regression analysis using Graphpad Prisin Software Version 2.0 (Graphpad Software Inc., San Diego, Calif.).

Structure (SMILES): C=C1C[C@@H]2C[C@@H]3C[C@@H](O)C[C@@H](O3)c3coc(n3)/C=C/C[C@H]3O[C@@H](/C(C)=C/c4coc(C[C@]5(O)C[C@H](OC)C[C@H]([C@H](O)/C=C(C)/C=C/[C@@H](C/C=C/Br)OC)O5)n4)[C@H](C)[C@@H](OC(=O)/C=C\C[C@@H](C1)O2)[C@H]3C [Compound 1, Phorboxazole A]
- IC50 [1]: 6.7 nM
- Mean Number Colonies/10^4 cells ([2]; 1 nM): 270
- Mean Number Colonies/10^4 cells ([2]; 10 nM): 0
- Mean Number Colonies/10^4 cells ([2]; 100 nM): 0
- inhibition at 0.001 µM ([2]; Homo sapiens, 168 h, 1 nM, read-out: Inhibition of clonogenic growth): 86.8%
- inhibition at 0.01 µM ([2]; Homo sapiens, 168 h, 10 nM, read-out: Inhibition of clonogenic growth): > 99.9%
- inhibition at 0.1 µM ([2]; Homo sapiens, 168 h, 100 nM, read-out: Inhibition of clonogenic growth): > 99.9%
- IC50 [3]: < 31.2 nM
